The structures appear in SMILES notation. Read-outs that look alike come from different tables or passages of the source. A value given as a limit tells only on which side of the number the result lay.

Results on 16 compounds are retold here after patent USRE34630E, “Substituted isoquinolines and methods of using same” (Euroceltique, S.A., priority 1992, dated 1994).

In assay [1] the test system is rabbit platelets (PAF-induced serotonin release). In words: PAF-induced release of tritiated serotonin from rabbit platelets. As to conditions: Oryctolagus cuniculus, Platelet; for inhibition at 30 µM: read-out: Platelet Serotonin Release % Inhibition at 30 uM, 30 uM; for IC50: read-out: Platelet Serotonin Release I50. It counts as cell-based, rabbit (New Zealand White). As to the method:
(§1) The cellular responses studied include (1) PAF-induced release of preloaded, radiolabeled serotonin from rabbit platelets, (2) PAF-induced degranulation (release of myeloperoxidase) from purified human nuetrophils and (3) PAF-induced adhesion of human neutrophils to latex beads. Each putative antagonist was tested at 30 μM for its effect on each response. Selected compounds were tested in a concentration-response fashion.
Blood is collected from the central ear artery of New Zealand White rabbits into a 1:7 volume of acid citrate dextrose. The blood is centrifuged at 1100 rpm for 20 minutes. The isolated platelet rich plasma (PRP) is then incubated at 37° C. for 30 minutes with 1 μCi^3 H-serotonin binoxalate per ml PRP. Labeled platelets are pelleted by centrifugation at 2800 rpm for 20 minutes. The platelets are then washed in Tyrodes gel buffer without calcium in the presence of 0.1 mM EGTA and again pelleted at 2800 rpm for 20 minutes. This wash process is repeated. The washed platelet pellet is resuspended in Tyrodes gel buffer without calcium and adjusted to a concentration of 1.25×10^9 platelets/ml, as determined from a standard curve of absorbance at 530 num vs platelet concentration.
Polystyrene reaction tubes containing various dilutions of PAF (for standard curve determination) or a single concentration of PAF with and without the subject antagonist in a 0.45 ml volume of Tyrodes gel buffer with calcium each receive a 0.05 ml aliquot of the paltelet preparation. After a 90 second incubation period at room temperature, the reaction is stopped by the addition of 0.02 ml of 9.25 % formaldehyde. The platelets are then pelleted by centrifugation at 2800 rpm for 15 minutes at 4° C.
Aliquots (0.1 ml) of the supernatants are added to 3 ml liquid scintillation fluid in polypropylene vials. The samples are then counted for radioactivity in a liquid scintillation counter. The platelets in one set of reaction tubes containing only buffer and labeled platelets are lysed using 0.01 ml 10% Triton TX, and the total reactivity is determined by liquid scintillation counting. The determined dpm represent the total radioactivity in the labelled platelets. The results for each determination are reported as the percentage release of the total radioactivity in the sample. The extent of PAF antagonist activity is expressed as the percent inhibition of ^3 H-serotonin release compared to that amount released by PAF alone.

Assay [2] concerns human neutrophils (PAF-induced degranulation). Put plainly: PAF-induced degranulation (myeloperoxidase release) of human neutrophils. It counts as cell-based. As to conditions: Neutrophil. As to the method: as §1
Neutrophils are isolated from human venous blood via a two-step sedimentation procedure, and contaminating erythrocytes are selectively lysed. The neutrophils were preincubated in 0.25% Hanks buffer containing bovine serum albumin (BSA) with 5 ug Cytochalasin B/ ml cells for 5 minutes at 37° C. Neutrophils (4×10^6) are added to stimuli (PAF or buffer control) in the presence and absence of antagonist in Krebs-Ringer buffer to a final volume of 1.0 ml, and incubated at 37° C. for appropriate periods of time. At the end of the reaction period the neutrophils are pelleted by centrifugation at 3000 rpm for 5 minutes at 4° C.
Aliquots (0.2 ml) of the supernatants are added to polysyrene tubes to which are added the following: 0.6 ml)>25% Hanks BSA, 0.5 ml MPO buffer (0.2 M NaPO4, pH 6.2) and to start the color reaction 0.2 ml of a 1:1 v/v 0.05% H2 O2 :1.25 mg/ml dimethoxybenzidine (DMB). The reaction is allowed to run at room temperature for 15 minutes and is stopped by the addition of 0.05 ml 2% sodium azide. The developed color is quantitated in a spectrophotometer at 460 nm. The amount of myeloperoxidase (MPO) released by PAF stimulation can thus be determined. In order to determine the total amount of MPO in the cells an unstimulated control tube of neutrophils is lysed using 0.01 ml 10% Triton TX and the total MPO is determined via the color reaction and spectrophotometer reading. The activity of a given concentration of PAF is expressed as the percentage of the total MPO released. The activity of antagonists at a given concentration is expressed as a percentage of inhibition of PAF-induced MPO released at a single concentration of PAF.

The subject of assay [3] is human neutrophils (PAF-induced bead adhesion). In words: PAF-induced adhesion of human neutrophils to latex beads. It counts as cell-based. To be noted: Neutrophil, albumin-coated latex beads. Here is the method:
as §1
Latex bead suspension (0.6 ml; 10% aqueous suspension; particle diameter=1u) is pipeted into a 1.5 ml eppendorf centrifuge tube. The beads are pelleted by centrifugation, the supernatant is discarded and the beads are washed 2 times with 1 ml 0.9% saline. To the pelleted beads is added 0.5 ml 20 mg/ml human serum albunim (HSA) in Krebs-Ringer buffer.
Allow bed-albumin mixture to sit at room temperature for 10 minutes, centrifuge for 1 minute and remove the supernatant, and wash albumin-coated beads 3 times with saline. Resuspend the beads in 1 ml of Krebs-Ringer.
Human neutrophils are prepared as described for the neutrophil degranulation assay and 10^7 cells are added to 0.3 ml of Krebs-Ringerin the presence and absence of PAF and putative antagonist and are incubated at 37° for an appropriate period of time.
The albumin-coated beads are then added in 0.05 ml to give a final bead concentration of 1% v/v, resulting in a bead to neutrophil ratio of 100:1. The tubes containing cells and beads are then placed in an agitating water bath at 37° C. and 120 oscillation per minute for 10 minutes. The reaction is stopped by adding an equal volume of 2.5% glutaraldehyde in saline. The reaction tubes are allowed to stand at room temperature for 30 minutes. The cells are then washed 3 times (with centrifugation at 1000 rpm for 5 minutes) with saline to remove the unadhered latex beads and resuspended in 0.3 ml saline.
Wet mounts are prepared and adherence is examined by light microscopy at 400x. […] Activity of the antagonists is expressed as the percent inhibition of PAF-induced adherence.

For assay [4], the system named is PAF-induced edema. Put plainly: PAF-induced edema formation in rabbit skin. It counts as in vivo. As to conditions: for % Inhibition of PAF-induced edema: local intradermal, with PAF+PGE2, 30 minutes. Here is the method:
PAF (10^-9 moles/site) was mixed with […] (a vasodilator, 3×10^-10 moles/site) and injected intradermally in 0.1 ml volumes with six replicates per sample. After 30 minutes a cardiac blood sample was taken and the plasma perpared. The animal was then killed, the dorsal skin removed and injection sites were punched out. Skin samples were counted in a counter together with plasma samples and the amount of plasma leakage in skin sites expressed in terms of 1 μl plasma by comparing the skin radioactivity with that in 1 μl plasma.

As a reminder, the inhibition is the relative decrease from the control value, in per cent. With `COc1ccc(C2=NCCc3cc(O)ccc32)cc1OC` [Compound 12a, 1-(3,4-Dimethoxyphenyl)-6-hydroxy-3,4-dihydroisoquinoline], the inhibition at 30 µM in assay [1] (PAF-induced, rabbit platelets) is 12%; in assay [2], 40%; in assay [3] it was 90%.

As for `COc1ccc(C2=NCCc3cc(OCCN(C)C)ccc32)cc1OC` [Compound 12b], the inhibition at 30 µM is 0% in assay [1] (PAF-induced, rabbit platelets); 10% in assay [2]; 2% in assay [3].

Regarding `COc1ccc(C2=NCCc3ccccc32)cc1OC` [Compound A2, 1-(3,4-Dimethoxyphenyl)-3,4-dihydroisoquinoline], the inhibition at 30 µM came out at 48% in assay [1] (PAF-induced, rabbit platelets); 7% in assay [2]; 2% in assay [3].

Consider `COc1ccc(-c2nccc3ccccc23)cc1OC` [Compound A3, 1-(3,4-dimethoxyphenyl) isoquinoline], for which the inhibition at 30 µM worked out at 80% in assay [1] (PAF-induced, rabbit platelets); 38% in assay [2]; 2% in assay [3].

As to `COc1ccc(C2=NCCc3cc(C)ccc32)cc1OC` [Compound C2, 1-(3,4-Dimethoxyphenyl)-6-methyl-3,4-dihydroisoquinoline], the inhibition at 30 µM in assay [1] (lot 2) came out at 0%; in assay [1] (lots 1 & 3) it was 38%; in assay [2] it was 16%; in assay [3] it was 10%.

Consider `COc1ccc(-c2nccc3cc(C)ccc23)cc1OC` [Compound C3, 1-(3,4-dimethoxyphenyl)-6-methylisoquinoline], for which the inhibition at 30 µM turned out to be 100% in assay [1] (PAF-induced, rabbit platelets); 78% in assay [2]; 30% in assay [3]. For the same compound, in assay [2] (Homo sapiens, read-out: PAF-Induced Neutrophil Degranulation I50), the IC50 is greater than 30 µM.

Turning to `COc1ccc(Cc2nccc3cc(C)ccc23)cc1OC` [Compound D3, 1-(3,4-Dimethoxybenzyl)-6-methylisoquinoline], the inhibition at 30 µM stood at 100% in assay [1] (PAF-induced, rabbit platelets); 57% in assay [2]; 100% in assay [3]. The IC50 in assay [1] (PAF-induced, rabbit platelets) stood at 25 µM.

Take `COc1ccc(CCC2=NCCc3cc(C)ccc32)cc1OC` [Compound E2]: the inhibition at 30 µM was found to be 92% in assay [1] (PAF-induced, rabbit platelets); 70% in assay [2]; 2% in assay [3].

In the case of `COc1ccc(CCc2nccc3cc(C)ccc23)cc1OC` [Compound E3, 1-[2-(3,4-Dimethoxyphenyl)ethyl]-6-methylisoquinoline], the inhibition at 30 µM in assay [1] (PAF-induced, rabbit platelets) was found to be 90%; in assay [2], 77%; in assay [3], 9%.

`COc1cc(C2=NCCc3cc(C)ccc32)cc(OC)c1OC` [Compound F2, 1-(3,4,5-Trimethoxyphenyl)-6-methyl-3,4-dihydroisoquinoline]: the inhibition at 30 µM in assay [1] (PAF-induced, rabbit platelets) came out at 48%; in assay [2] it was 27%; in assay [3], 26%.

Consider `COc1cc(-c2nccc3cc(C)ccc23)cc(OC)c1OC` [Compound F3, 1-(3,4,5-Trimethoxyphenyl)-6-methylisoquinoline], for which the inhibition at 30 µM in assay [1] (PAF-induced, rabbit platelets) is 89%; in assay [2], 60%; in assay [3], 87%.

Regarding `COc1cccc(C2=NCCc3cc(C)ccc32)c1` [Compound G2, 1-(3-Methoxyphenyl)-6-methyl-3,4-dihydroisoquinoline], the inhibition at 30 µM in assay [1] (PAF-induced, rabbit platelets) came out at 100%; in assay [2], 14%; in assay [3], 42%. In assay [1] (PAF-induced, rabbit platelets), the IC50 was 20 µM.

Take `COc1ccc(C2=NCCc3cc(C)ccc32)cc1` [Compound H2, 1-(4-Methoxyphenyl)-6-methyl-3,4-dihydroisoquinoline]: the inhibition at 30 µM turned out to be 100% in assay [1] (PAF-induced, rabbit platelets); 25% in assay [2]; 3% in assay [3]. In addition, the IC50 in assay [1] (PAF-induced, rabbit platelets) was 18 µM.

For `COc1ccc(C2=NCCc3cc(OCc4ccccc4)ccc32)cc1OC` [Compound I2, 1-(3,4-Dimethoxyphenyl)-6-benzyloxy-3,4-dihydroisoquinoline], the inhibition at 30 µM in assay [1] (PAF-induced, rabbit platelets) amounted to 100%; in assay [2], 72%; in assay [3], 10%. The IC50 in assay [1] (PAF-induced, rabbit platelets) was found to be 12.5 µM.

For `COc1ccc(Cc2nccc3cc(OCc4ccccn4)ccc23)cc1OC` [Compound J3a, 1-(3,4-Dimethoxybenzyl)-6-(2-pyridylmethyloxy) isoquinoline], the inhibition at 30 µM came out at 88% in assay [1] (PAF-induced, rabbit platelets); 70% in assay [2]; 12% in assay [3]. The IC50 in assay [1] (PAF-induced, rabbit platelets) was determined as 0.8 µM. Further, the “% Inhibition of PAF-induced edema” value in assay [4] (10^-7 moles/site) is reported as 62%; in assay [4] (10^-8 moles/site), 30%; in assay [4] (10^-9 moles/site) it was -7%; in assay [4] (10^-10 moles/site), 2%.

As to `CCCCC[C@H](O)/C=C/[C@H]1[C@H](O)CC(=O)[C@@H]1C/C=C\CCCC(=O)O` [PGE2, reference compound], the “Edema formation in rabbit skin (response to agent alone)” value in assay [4] (intradermal, alone, compared with saline) was “not much greater than seen with saline”.
